From US12466790B1, “Bis urea-based organoselenium compound and method for treating cancer” (IMAM MOHAMMAD IBN SAUD ISLAMIC UNIVERSITY, priority 2024, dated 2025) come the findings set out here.

For one data set, the system named is melanoma cancer (A375). Put plainly: SRB growth inhibition assay, A375. The format is cell-based. The settings on record: Homo sapiens, A-375, A375 cells, 100 μg/mL, 48 h incubation, read-out: growth inhibition percentage. As for the experimental part: (§1) The antitumor activities of the bis-(organoselanyl urea)aryl agent against all tested cell lines were evaluated by sulphorhodamine-B (SRB) assay. Briefly, cells were seeded at a density of 3×10^3 cells/well in 96-well microtiter plates. They were left to attach for 24 h before incubation with the aforementioned compound. Next, cells were treated with 100 μg/mL for bis-(organoselanyl urea)aryl agent. For each concentration, three wells were used, and incubation was continued for 48 h. DMSO was used as a control vehicle (1% v/v). At the end of incubation, cells were fixed with 20% trichloroacetic acid and stained with 0.4% SRB dye. The optical density (O.D.) of each well was measured spectrophotometrically at 570 nm using an ELISA microplate reader (TECAN Sunrise™, Germany). The mean survival fraction at each drug concentration was calculated as follows: O.D. of the treated cells/O.D. of the control cells. The IC50 (concentration that produces 50% of cell growth inhibition) value of bis-(organoselanyl urea)aryl agent was calculated using sigmoidal dose-response curve-fitting models.

The subject of data set [1] is human squamous cell carcinoma of the oral tongue (HN9). Put plainly: SRB growth inhibition assay, HN9. The class given is cell-based. The note with it: HN9 cells, 100 μg/mL, 48 h incubation, read-out: growth inhibition percentage. As for the experimental part:
as §1

The subject of data set [2] is colorectal carcinoma (HCT116). Put plainly: SRB growth inhibition assay, HCT116. The format is cell-based. The settings on record: Homo sapiens, HCT-116, HCT116 cells, 100 μg/mL, 48 h incubation, read-out: growth inhibition percentage. As for the experimental part: as §1
The test system of data set [3] is breast cancer cell line (MCF7). In words: SRB growth inhibition assay, MCF7. The note with it: Homo sapiens, MCF7 cells, 100 μg/mL, 48 h incubation, read-out: growth inhibition percentage. The class given is cell-based. The procedure:
as §1

Data set [4] concerns hepatocellular carcinoma (HEPG2). In words: SRB growth inhibition assay, HEPG2. The format is cell-based. The settings on record: Homo sapiens, HEPG2 cells, 100 μg/mL, 48 h incubation, read-out: growth inhibition percentage. As for the experimental part:
as §1

The subject of data set [5] is hepatocellular carcinoma (HuH7). Put plainly: SRB growth inhibition assay, HuH7. The format is cell-based. The settings on record: Homo sapiens, Huh-7, HuH7 cells, 100 μg/mL, 48 h incubation, read-out: growth inhibition percentage. The procedure: as §1
In data set [6] the test system is non-small cell lung cancer (A549). In words: SRB growth inhibition assay, A549. The class given is cell-based. The note with it: Homo sapiens, A549 cells, 100 μg/mL, 48 h incubation, read-out: growth inhibition percentage. The procedure:
as §1

Data set [7] has as its system human skin fibroblast normal cell (HSF). The settings on record: 48 h, 100 μg/mL. As for the experimental part:
as §1

The subject of data set [8] is normal oral epithelial cell line (OEC). The settings on record: 48 h, 100 μg/mL. As for the experimental part:
as §1

The subject of data set [9] is pharynx squamous carcinoma (FaDu). In words: SRB growth inhibition assay, FaDu. The format is cell-based. The settings on record: Homo sapiens, FaDu cells, 100 μg/mL, 48 h incubation, read-out: growth inhibition percentage. The procedure:
as §1

For `C[Se]c1ccc(NC(=O)Nc2ccc(Cc3ccc(NC(=O)Nc4ccc([Se]C)cc4)cc3)cc2)cc1` [HB190, 1,1′-(methylenebis(4,1-phenylene))bis(3-(4-(methylselanyl)phenyl)urea)], the inhibition – broadly, how much of the control response was suppressed – at 100 µg/mL with melanoma cancer (A375) stood at 66.8%; in data set [1] it was 74%; in [2], 85.3%; in data set [3], 67.7%; in data set [4], 76.2%; in [5], 88.6%. Also, the inhibition at 100 µg/mL amounted to 74.4% in data set [6] and 77.3% in data set [9]. The “growth inhibition percentage (safety, normal cells)” value worked out at 9.76% in data set [7] and 7.32% in data set [8].
Regarding `COc1cccc2c1C(=O)c1c(O)c3c(c(O)c1C2=O)C[C@@](O)(C(=O)CO)C[C@@H]3O[C@H]1C[C@H](N)[C@H](O)[C@H](C)O1` [doxorubicin, reference compound], the inhibition at 100 µg/mL with melanoma cancer (A375) worked out at 78.2%; in data set [1], 51.7%; in [2], 64.3%; in data set [3] it was 58.6%; in data set [4], 55.6%; in data set [5], 68%. For the same compound, the inhibition at 100 µg/mL amounted to 39.1% in [6] and 79.3% in data set [9].
